Assay results from the NIST ThermoML archive (doi:10.1021/je900219w).

Experiments:
[1] = 101 kPa, Liquid; for viscosity: Capillary tube (Ostwald / Ubbelohde) method; for molar volume: Pycnometric method
[2] = xn = mol fraction of the nth substance listed; settings: 101 kPa, Liquid; for viscosity: Capillary tube (Ostwald / Ubbelohde) method; for molar volume: Pycnometric method

Cc1cccc(C)c1 [1,3-dimethylbenzene]
[1]
Settings	molar volume [m3/mol]	viscosity [mPa·s]
303.15 K	0.0001241	0.5501
313.15 K	0.0001254	0.4944
323.15 K	0.0001266	0.4472

CCCCCCO [hexan-1-ol]
[1]
Settings	molar volume [m3/mol]	viscosity [mPa·s]
303.15 K	0.0001259	3.829
313.15 K	0.000127	2.879
323.15 K	0.0001281	2.215

Cc1cccc(C)c1 [1,3-dimethylbenzene] + CCCCCCO
[2]
Settings	molar volume, 303.15 K [m3/mol]	molar volume, 313.15 K [m3/mol]	molar volume, 323.15 K [m3/mol]	viscosity, 303.15 K [mPa·s]	viscosity, 313.15 K [mPa·s]	viscosity, 323.15 K [mPa·s]
x2 = 0	0.0001241	0.0001254	0.0001266	0.5501	0.4944	0.4472
x2 = 0.1	0.0001243	0.0001256	0.0001269	0.5979	0.5309	0.4743
x2 = 0.2	0.0001246	0.0001258	0.0001272	0.6825	0.5975	0.5277
x2 = 0.3	0.0001248	0.000126	0.0001273	0.7998	0.6894	0.6009
x2 = 0.4	0.0001249	0.0001262	0.0001275	0.9537	0.8068	0.6925
x2 = 0.5	0.0001251	0.0001263	0.0001276	1.161	0.9645	0.8141
x2 = 0.6	0.0001253	0.0001265	0.0001277	1.442	1.173	0.97
x2 = 0.7	0.0001254	0.0001266	0.0001278	1.833	1.457	1.179
x2 = 0.8	0.0001255	0.0001267	0.0001279	2.357	1.833	1.448
x2 = 0.9	0.0001257	0.0001269	0.000128	3.032	2.309	1.797

CCCCCCO [hexan-1-ol] + Cc1cccc(C)c1
[2], x1 = 1
Settings	molar volume [m3/mol]	viscosity [mPa·s]
303.15 K	0.0001259	3.829
313.15 K	0.000127	2.879
323.15 K	0.0001281	2.215
